What was measured:
[1] = target: BDNF/NT-3 growth factors receptor (Homo sapiens) (UniProt Q16620); assay: Inhibition of TRKB (unknown origin) assessed as residual activity at 1000 nM by KINOMEscan analysis relative to control
[2] = target: Ribosomal protein S6 kinase alpha-1 (Homo sapiens) (UniProt Q15418); assay: Inhibition of N-terminal RSK1 kinetic domain 1 (unknown origin) assessed as residual activity at 1000 nM by KINOMEscan analysis relative to control
[3] = target: High affinity nerve growth factor receptor (Homo sapiens) (UniProt P04629); assay: Inhibition of TRKA (unknown origin) assessed as residual activity at 1000 nM by KINOMEscan analysis relative to control
Chain of High affinity nerve growth factor receptor (Homo sapiens) (P04629 33-796 limits assumed): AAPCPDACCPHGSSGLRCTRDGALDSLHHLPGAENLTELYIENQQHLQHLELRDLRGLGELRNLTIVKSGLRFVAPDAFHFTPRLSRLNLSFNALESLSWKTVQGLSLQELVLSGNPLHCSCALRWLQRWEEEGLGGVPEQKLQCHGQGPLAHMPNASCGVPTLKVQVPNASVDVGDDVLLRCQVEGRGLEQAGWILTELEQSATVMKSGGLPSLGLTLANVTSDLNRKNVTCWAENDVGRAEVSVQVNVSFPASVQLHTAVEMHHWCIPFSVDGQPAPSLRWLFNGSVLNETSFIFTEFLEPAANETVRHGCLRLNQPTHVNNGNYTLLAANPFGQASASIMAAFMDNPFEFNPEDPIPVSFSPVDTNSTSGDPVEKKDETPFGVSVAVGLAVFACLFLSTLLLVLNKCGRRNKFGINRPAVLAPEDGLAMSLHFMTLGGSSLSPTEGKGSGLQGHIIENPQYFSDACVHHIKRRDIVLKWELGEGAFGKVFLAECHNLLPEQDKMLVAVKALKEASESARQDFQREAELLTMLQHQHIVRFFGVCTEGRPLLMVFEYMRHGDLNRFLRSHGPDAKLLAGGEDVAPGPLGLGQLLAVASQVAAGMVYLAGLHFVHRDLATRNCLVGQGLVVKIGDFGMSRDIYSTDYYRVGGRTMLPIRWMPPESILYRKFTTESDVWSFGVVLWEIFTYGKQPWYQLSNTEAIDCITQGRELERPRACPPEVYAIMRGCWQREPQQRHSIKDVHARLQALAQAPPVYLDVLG

[4] = target: T1, cGMP-dependent protein kinase 1 (Homo sapiens) (UniProt Q13976); assay: Inhibition of PRKG1 (unknown origin) assessed as residual activity at 1000 nM by KINOMEscan analysis relative to control
T1 sequence (whole entry): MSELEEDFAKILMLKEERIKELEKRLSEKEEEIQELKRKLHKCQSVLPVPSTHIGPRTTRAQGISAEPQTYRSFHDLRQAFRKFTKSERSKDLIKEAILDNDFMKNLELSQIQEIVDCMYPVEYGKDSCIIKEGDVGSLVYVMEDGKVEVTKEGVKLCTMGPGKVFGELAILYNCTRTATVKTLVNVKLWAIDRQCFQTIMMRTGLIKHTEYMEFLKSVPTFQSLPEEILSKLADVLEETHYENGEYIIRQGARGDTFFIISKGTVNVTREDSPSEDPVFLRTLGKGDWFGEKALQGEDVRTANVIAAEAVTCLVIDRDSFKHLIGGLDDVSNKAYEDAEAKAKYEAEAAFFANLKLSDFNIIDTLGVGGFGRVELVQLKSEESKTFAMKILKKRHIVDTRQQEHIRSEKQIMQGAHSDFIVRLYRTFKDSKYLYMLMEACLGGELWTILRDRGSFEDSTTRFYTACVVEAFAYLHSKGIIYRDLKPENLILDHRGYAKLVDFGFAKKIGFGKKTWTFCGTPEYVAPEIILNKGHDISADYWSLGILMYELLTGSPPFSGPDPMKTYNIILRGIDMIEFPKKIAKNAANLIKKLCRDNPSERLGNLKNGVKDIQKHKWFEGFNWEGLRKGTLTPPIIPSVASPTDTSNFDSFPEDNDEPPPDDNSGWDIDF

Homo sapiens = species on record: Homo sapiens; assay: Inhibition of JNK1 (unknown origin) assessed as residual activity at 1000 nM by KINOMEscan analysis relative to control
[5] = target: T2, Serine/threonine-protein kinase D1 (Homo sapiens) (UniProt Q15139); assay: Inhibition of PRKD1 (unknown origin) assessed as residual activity at 1000 nM by KINOMEscan analysis relative to control
T2 sequence (whole entry): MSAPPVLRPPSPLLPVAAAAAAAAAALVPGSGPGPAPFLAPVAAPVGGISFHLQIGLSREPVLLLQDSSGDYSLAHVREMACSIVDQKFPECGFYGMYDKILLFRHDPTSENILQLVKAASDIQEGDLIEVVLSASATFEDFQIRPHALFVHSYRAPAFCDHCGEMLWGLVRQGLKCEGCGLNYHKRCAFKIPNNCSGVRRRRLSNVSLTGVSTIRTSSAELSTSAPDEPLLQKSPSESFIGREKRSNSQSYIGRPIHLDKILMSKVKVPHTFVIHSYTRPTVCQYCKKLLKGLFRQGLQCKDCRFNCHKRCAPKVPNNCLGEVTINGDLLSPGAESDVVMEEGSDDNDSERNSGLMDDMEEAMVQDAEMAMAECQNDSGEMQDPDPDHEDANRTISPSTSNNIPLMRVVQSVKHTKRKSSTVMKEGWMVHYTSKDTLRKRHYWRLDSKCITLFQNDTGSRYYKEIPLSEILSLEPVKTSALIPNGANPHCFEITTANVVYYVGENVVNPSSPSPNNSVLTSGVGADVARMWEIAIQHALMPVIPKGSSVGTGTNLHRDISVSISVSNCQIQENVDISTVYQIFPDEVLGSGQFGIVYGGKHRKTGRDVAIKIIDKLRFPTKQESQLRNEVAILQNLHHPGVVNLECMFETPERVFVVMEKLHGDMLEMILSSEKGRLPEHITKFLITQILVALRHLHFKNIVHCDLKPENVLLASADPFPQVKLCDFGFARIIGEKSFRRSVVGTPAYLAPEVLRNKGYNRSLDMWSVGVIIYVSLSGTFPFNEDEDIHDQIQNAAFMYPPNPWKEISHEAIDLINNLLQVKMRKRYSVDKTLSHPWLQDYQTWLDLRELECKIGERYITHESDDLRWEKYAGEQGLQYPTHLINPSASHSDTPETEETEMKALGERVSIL

[6] = target: T3, Mitogen-activated protein kinase kinase kinase 13 (Homo sapiens) (UniProt O43283); assay: Inhibition of LZK (unknown origin) assessed as residual activity at 1000 nM by KINOMEscan analysis relative to control
T3 sequence (whole entry): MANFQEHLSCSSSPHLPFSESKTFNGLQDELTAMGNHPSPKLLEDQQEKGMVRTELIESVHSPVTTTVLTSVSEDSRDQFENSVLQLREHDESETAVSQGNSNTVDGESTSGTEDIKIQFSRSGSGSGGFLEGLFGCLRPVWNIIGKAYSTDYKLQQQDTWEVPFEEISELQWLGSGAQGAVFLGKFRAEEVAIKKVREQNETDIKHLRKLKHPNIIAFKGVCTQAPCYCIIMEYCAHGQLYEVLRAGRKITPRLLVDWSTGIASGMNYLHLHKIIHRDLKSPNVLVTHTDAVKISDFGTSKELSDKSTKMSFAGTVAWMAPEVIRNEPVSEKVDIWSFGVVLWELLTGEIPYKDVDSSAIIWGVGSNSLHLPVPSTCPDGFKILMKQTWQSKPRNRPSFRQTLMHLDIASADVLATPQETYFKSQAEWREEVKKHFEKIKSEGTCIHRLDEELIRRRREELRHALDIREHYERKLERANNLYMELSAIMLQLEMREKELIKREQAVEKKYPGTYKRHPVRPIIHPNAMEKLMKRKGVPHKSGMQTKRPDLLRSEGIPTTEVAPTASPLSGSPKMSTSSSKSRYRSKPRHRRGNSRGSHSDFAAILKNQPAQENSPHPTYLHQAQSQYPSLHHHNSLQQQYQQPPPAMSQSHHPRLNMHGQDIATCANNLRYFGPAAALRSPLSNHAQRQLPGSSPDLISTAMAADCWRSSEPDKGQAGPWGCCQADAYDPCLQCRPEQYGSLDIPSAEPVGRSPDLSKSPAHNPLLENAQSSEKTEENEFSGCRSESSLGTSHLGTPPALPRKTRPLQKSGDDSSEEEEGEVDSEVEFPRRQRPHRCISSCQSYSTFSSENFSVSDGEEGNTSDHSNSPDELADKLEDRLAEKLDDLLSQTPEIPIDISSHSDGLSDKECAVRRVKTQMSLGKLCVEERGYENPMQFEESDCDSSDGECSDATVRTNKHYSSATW

Chain of BDNF/NT-3 growth factors receptor (Homo sapiens) (Q16620 32-822 limits assumed): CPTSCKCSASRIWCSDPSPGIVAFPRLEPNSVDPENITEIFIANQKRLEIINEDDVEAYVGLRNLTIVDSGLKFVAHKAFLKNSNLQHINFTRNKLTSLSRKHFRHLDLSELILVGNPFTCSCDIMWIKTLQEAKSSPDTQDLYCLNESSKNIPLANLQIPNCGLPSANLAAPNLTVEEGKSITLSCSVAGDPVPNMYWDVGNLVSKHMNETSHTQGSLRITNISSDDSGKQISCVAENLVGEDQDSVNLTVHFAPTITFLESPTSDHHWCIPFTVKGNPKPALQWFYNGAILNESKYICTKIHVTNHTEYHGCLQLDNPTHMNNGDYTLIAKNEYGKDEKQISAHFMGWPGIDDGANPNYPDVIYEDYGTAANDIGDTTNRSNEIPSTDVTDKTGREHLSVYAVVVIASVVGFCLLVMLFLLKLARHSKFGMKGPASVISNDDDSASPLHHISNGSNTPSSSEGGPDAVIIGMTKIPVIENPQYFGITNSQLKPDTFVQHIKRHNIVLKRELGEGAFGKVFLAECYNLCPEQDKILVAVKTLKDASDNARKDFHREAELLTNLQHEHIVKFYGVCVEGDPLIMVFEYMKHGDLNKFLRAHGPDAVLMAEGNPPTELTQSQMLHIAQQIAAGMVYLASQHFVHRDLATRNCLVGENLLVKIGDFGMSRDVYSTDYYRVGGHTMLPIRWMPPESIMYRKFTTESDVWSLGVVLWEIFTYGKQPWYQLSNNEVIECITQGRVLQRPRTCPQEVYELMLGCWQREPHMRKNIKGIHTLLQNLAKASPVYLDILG
Chain of Ribosomal protein S6 kinase alpha-1 (Homo sapiens) (Q15418 whole entry, the tested form may be a part): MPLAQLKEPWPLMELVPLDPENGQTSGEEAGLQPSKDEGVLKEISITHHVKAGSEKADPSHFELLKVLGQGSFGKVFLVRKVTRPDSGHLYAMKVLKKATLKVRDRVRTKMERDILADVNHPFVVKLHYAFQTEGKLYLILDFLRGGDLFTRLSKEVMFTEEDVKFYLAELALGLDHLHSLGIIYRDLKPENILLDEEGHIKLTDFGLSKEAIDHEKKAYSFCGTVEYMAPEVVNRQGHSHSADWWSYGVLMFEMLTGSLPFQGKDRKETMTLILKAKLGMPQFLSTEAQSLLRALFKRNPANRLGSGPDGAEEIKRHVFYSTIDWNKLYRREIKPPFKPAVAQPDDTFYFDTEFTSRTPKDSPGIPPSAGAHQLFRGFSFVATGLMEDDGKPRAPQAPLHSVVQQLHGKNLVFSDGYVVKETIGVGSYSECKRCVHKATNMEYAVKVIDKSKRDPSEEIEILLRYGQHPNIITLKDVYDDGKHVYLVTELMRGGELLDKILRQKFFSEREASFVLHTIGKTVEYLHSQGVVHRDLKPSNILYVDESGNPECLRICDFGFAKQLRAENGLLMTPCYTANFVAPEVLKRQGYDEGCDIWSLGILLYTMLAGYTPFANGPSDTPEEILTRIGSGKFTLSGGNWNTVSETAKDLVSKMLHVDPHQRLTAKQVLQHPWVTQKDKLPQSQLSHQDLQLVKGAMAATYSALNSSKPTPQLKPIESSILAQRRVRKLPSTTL

| Compound | Activity [1] | Activity [2] | Activity [3] | Activity [4] | Activity (Homo sapiens) | Activity [5] | Activity [6] |
| --- | --- | --- | --- | --- | --- | --- | --- |
| COc1cc2nc(C)nc(N[C@H](C)c3cccc(-c4cn[nH]c4)c3)c2cc1OC | 98% | 95% | 99% | 70% | 64% | 85% | 94% |
| COc1cc2ncnc(N[C@H](C)c3cccc4ccccc34)c2cc1OC | 100% | 76% | 97% | 100% | 100% | 95% | 99% |

Source: ChEMBL document CHEMBL5678818, “Discovery of potent SOS1 inhibitors that block RAS activation via disruption of the RAS-SOS1 interaction” (Proc Natl Acad Sci U S A, 2019)
